Molecular target: T1, mOTOP1 (Mus musculus, UniProt Q80VM9)
T1 construct: gene Otop1; full length in HEK-293 / PAC-KO cells; homodimer
T1 sequence (Q80VM9 1-600): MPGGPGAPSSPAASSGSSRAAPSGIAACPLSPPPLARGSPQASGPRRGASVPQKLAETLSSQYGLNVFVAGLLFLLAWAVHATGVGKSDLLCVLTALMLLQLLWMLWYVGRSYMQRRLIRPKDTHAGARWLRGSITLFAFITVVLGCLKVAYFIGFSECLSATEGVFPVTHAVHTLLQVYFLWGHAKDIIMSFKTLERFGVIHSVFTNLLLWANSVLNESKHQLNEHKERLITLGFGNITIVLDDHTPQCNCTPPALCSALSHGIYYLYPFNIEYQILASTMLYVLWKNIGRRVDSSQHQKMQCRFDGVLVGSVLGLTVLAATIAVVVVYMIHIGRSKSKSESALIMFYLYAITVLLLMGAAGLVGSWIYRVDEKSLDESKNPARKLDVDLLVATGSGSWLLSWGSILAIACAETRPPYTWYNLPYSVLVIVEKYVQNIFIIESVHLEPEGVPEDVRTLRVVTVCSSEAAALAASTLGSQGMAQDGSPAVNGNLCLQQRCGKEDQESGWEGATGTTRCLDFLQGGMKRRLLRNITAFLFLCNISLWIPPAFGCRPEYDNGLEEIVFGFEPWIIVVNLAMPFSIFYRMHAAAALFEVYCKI
Assay: whole-cell patch clamp, inward current in HEK-293
Assay type: cell-based

EC50: 18.7 mM
Structure (SMILES): N [NH4Cl]

— publication PMC10556057, “The proton channel OTOP1 is a sensor for the taste of ammonium chloride” (Nature Communications, 2023)
